Measurements from patent US20180161388A1, “SUBSTANCE P, MAST CELL DEGRANULATION INHIBITORS, AND PERIPHERAL NEUROPATHY” (Beth Israel Deaconess Medical Center, Inc., priority 2015, published 2018).
Entries after “also recorded” stand apart in the source; their conditions may differ. Where no end group is shown, it is not given here.

How the values were obtained:
mast cells (MC) = experiment: Toluidine blue count of degranulated mast cells in dorsal skin biopsies of STZ-DM mice; assay type: in vivo; conditions: STZ-DM C57Bl6 mice, 8-weeks DM, ten days intraperitoneal treatment
Description: The number of intact or non-degranulated and degranulated MC in dorsal skin biopsies from non-DM and STZ-DM C57B16 mice with 8-weeks DM were evaluated by toluidine blue staining. Sections were stained metachromatically with 0.1% toluidine blue, pH 2 (cytoplasmic granules appear purple on a blue background). […] See e.g., J Peripher Nery Syst 2008; 13:218-27, Handbook of clinical neurology 2013; 115:115-36, Immunol Rev 2007; 217:65-78, Proc Natl Acad Sci USA 2006; 103:7759-64, and Nature 1982; 297:229-31. Non-DM and STZ-DM mice were also treated for ten days intraperitoneally with the MC stabilizer disodium cromoglycate (DSCG). […] However, the number of extensively degranulated MC was increased whereas the number of non-degranulated cells was reduced in STZ-DM mice compared to the non-DM controls.

M1 and M2 macrophages = experiment: M1/M2 macrophage ratio in skin after 10-day intraperitoneal DSCG; assay type: in vivo, mice; conditions: measured ten days after treatment completion
Description: The number of HLA-DR^+/CD68^+ (M1−) and CD206/CD68^+ (M2−) macrophages in the skin of DM patients and non-DM subjects were evaluated by immunofluorescence following previously defined methods. See e.g., J Peripher Nery Syst 2008; 13:218-27, Handbook of clinical neurology 2013; 115:115-36, Immunol Rev 2007; 217:65-78, Proc Natl Acad Sci USA 2006; 103:7759-64, and Nature 1982; 297:229-31. […] The gene expression of M1-associated pro-inflammatory cytokines, such as TNF-α (FIG. 4, panel a) and IL-1β (FIG. 4, panel b), was also elevated in the foot skin of diabetes mellitus patients, whereas the M2-associated anti-inflammatory cytokine IL-10 was reduced (FIG. 4, panel c).
Using the same methods as in the human samples described above, an increased M1/M2 ratio in C57BL/6J STZ-DM mice was observed. […] Both non-DM and STZ-DM KO mice and their normal littermates were tested.
The effect of a 10-day disodium cromoglycate (DSCG) intraperitoneal administration was evaluated in non-DM and STZ-DM C57B16 mice that were also tested for their wound healing capacity.

[1] = test system: intraepidermal nerve fibers; experiment: Intraepidermal nerve fiber density (IENFD) in normal skin adjacent to wounds; assay type: in vivo, mice
Description: In a blinded mode, the IENFD in normal skin areas adjacent to wounds in non-DM and DM not-treated and treated with topical SP application for a 10-day period as described above (FIGS. 13 and 14) was evaluated. […] Similar results were found in preliminary studies that evaluated the effect of MC stabilization with DSCG. More specifically, DSCG treatment in two DM mice tended to have a beneficial effect in IENFD (151±55 fibers/mm) compared to four non-treated DM mice (55±17, p<0.05). Initial observations in TAC1KO mice also indicated reduced IENFD (28±12, n=2 mice) that improved in a similar way as with the previous experiments following SP treatment (41±16, n=2).

6 mm excisional wounds = experiment: Daily topical SP in 6 mm excisional wounds: IL-6 expression and M1/M2 ratio; assay type: in vivo, mice
Excerpt: Daily topical Substance P (SP) application in 6 mm excisional wounds created at the back of non-DM and STZ-DM mice increased the IL-6 expression and M1/M2 ratio three days after wounding, imitating the acute inflammatory phase of wound healing in acute wounds (FIG. 12). However, at Day-10, SP reduced both these inflammatory factors in STZ-DM mice, which was increased when compared to non-DM mice.

wounds = experiment: Topical wound SP treatment in MC deficient mice (wound healing); assay type: in vivo; conditions: compared with WT mice
Excerpt: Combined topical treatment with SP and an MC stabilization agent should have an additive, if not synergistic, effect in preventing and reversing SFN.

[2] = STZ-DM mice, Day-10, listed as SP
[3] = non-DM and STZ-DM mice, three days after wounding
[4] = non-DM and STZ-DM mice, three days after wounding, listed as SP

Row | Molecule | number of degranulated MC in skin (mast cells (MC)) | M1/M2 macrophage ratio (M1 and M2 macrophages; STZ-DM C57Bl6 mice) | M1/M2 macrophage ratio (M1 and M2 macrophages; non-DM C57Bl6 mice) | IENFD ([1]; DM mice treated with DSCG (two mice), preliminary study, non-treated DM 55±17) [fibers/mm] | IL-6 expression in wounds (6 mm excisional wounds; [2]) | M1/M2 ratio in wounds (6 mm excisional wounds; [2]) | IL-6 expression in wounds (6 mm excisional wounds; [3]) | M1/M2 ratio in wounds (6 mm excisional wounds; [3]) | IL-6 expression in wounds (6 mm excisional wounds; [4]) | M1/M2 ratio in wounds (6 mm excisional wounds; [4]) | IENFD ([1]; DM mice, topical application for 10 days, periwound normal skin, listed as SP) | IENFD ([1]; TAC1KO mice after SP treatment (n=2), initial observations, untreated 28±12) [fibers/mm] | IENFD ([1]; non-DM mice, topical application for 10 days, periwound normal skin, listed as SP) | effect on wound healing (wounds)
1 | O=C([O-])c1cc(=O)c2c(OCC(O)COc3cccc4oc(C(=O)[O-])cc(=O)c34)cccc2o1.[Na+].[Na+] [DSCG, disodium cromoglycate] | effectively reduce the number of degranulated cells | drastically reduces it in STZ-DM to normal levels; also recorded: reduced the ratio to levels similar to the non-DM mice; also recorded: reduces the M1/M2 ratio to normal levels | no effect | 151±55 | – | – | – | – | – | – | – | – | – | –
2 | Substance P (RPKPQQFFGLM-NH2; ends and bridges not checked; UniProt P20366 58-68, looked up) [neuropeptide Substance P (SP), acts through the NK1 receptor] | – | – | – | – | reduced the chronic inflammation | reduced the chronic inflammation | increased | increased | induced an acute inflammatory response | induced an acute inflammatory response | returned to normal levels; also recorded: increased IENFD to levels similar to the non-DM mice | 41±16 | did not affect IENFD; also recorded: no obvious effect | lacks the beneficial effects
